Tests used:
[1] = molecular target: T1, SULT1A1 rat + CysDNCQ (Rattus norvegicus, UniProt P17988); test: Sulfation of phenolic compounds in vivo by E. coli strain expressing sulfotransferase with cysDNCQ; assay type: cell-based; conditions: M9, 1 mM IPTG, overnight 37° C.; start concentration per compound 61-287 μM
T1 construct: 1, 3, 4, 5, and 6 were cloned amplified from liver tissue cDNA (Zyagen) by PCR; expressed in transfected cells; host or cells: E. coli BL21(DE3)pLysS with pETDuet-1 (SULT1A1) and pRSFDuet-1 (cysDNCQ)
Protocol: (§1) The concentration of p-courmaric acid (pHCA) and zosteric acid in the supernatant was quantified by high performance (HPLC) and compared to chemical standards. HPLC was done on a Thermo setup using a HS-F5 column and mobile phases: 5 mM ammonium formate pH 4.0 (A) and acetonitrile (B) at 1.5 mL min-1, using a gradient elution starting at 5% B. From 0.5 min after injection to 7 min, the fraction of B increased linearly from 5% to 60%, and between 9.5 min and 9.6 the fraction of B decreased back to 5%, and remaining there until 12 min. pHCA and zosteric acid were quantified by measuring absorbance at 277 nm.
(§2) To further test the range of substrates that can be sulfated, we used strains carrying plasmids expressing SULT1A1 from rat (Rattus norvegicus) and SULT1E1 from chicken (Gallus gallus domesticus) (Example 1) cloned into the expression vector pETDuet-1, and cysDNCQ from E. coli cloned into expression vector pRSFDuet-1 (Example 2). The plasmids were introduced into the E. coli expression strain BL21(DE3)pLysS as described previously, selecting for transformants with appropriate antibiotics, namely 34 μg mL^1 chloramphenicol for pLysS, 100 μg mL^−1 ampicillin for pETDuet-1-based vectors, and 100 μg mL^−1 kanamycin for pRSFDuet-1-based vectors. […] A control strain without a sulfotransferase gene or cysDNCQ operon was also examined.
(§3) The strains were precultured in 2×YT medium with appropriate antibiotics. 10 μL of these precultures were used to inoculate M9 media with 1 mM IPTG and none or a single substrate for sulfation. After overnight growth at 37° C., 300 rpm the supernatants were withdrawn and examined by HPLC as described in Example 1. The compounds were detected by UV absorbance.

[2] = system: SULT1E1 from chicken; test: Sulfation of phenolic compounds in vivo by E. coli strain expressing sulfotransferase; assay type: cell-based, Gallus gallus domesticus; conditions: M9, 1 mM IPTG, overnight 37° C.; start concentration per compound 61-287 μM
Protocol: as §1, §2, §3

[3] = molecular target: T2, SULT1A1 from rat (Rattus norvegicus, UniProt P17988); test: as above; assay type: cell-based; conditions: M9, 1 mM IPTG, overnight 37° C.; start concentration per compound 61-287 μM
T2 construct: 1, 3, 4, 5, and 6 were cloned amplified from liver tissue cDNA (Zyagen) by PCR; expressed in transfected cells; host or cells: E. coli BL21(DE3)pLysS, plasmid pETDuet-1
Protocol: as §1, §2, §3

[4] = system: E. coli MG1655; test: Toxicity of unsulfated or sulfated product: growth rates of E. coli; assay type: cell-based; conditions: M9 0.2% glucose, pH 7, 37° C.; 10-40 mM pHCA or 20 or 40 mM zosteric acid
Text: All media preparations had been adjusted to pH 7. […] Filled squares represent growth rates in media with pHCA.

T2 sequence (P17988 whole entry): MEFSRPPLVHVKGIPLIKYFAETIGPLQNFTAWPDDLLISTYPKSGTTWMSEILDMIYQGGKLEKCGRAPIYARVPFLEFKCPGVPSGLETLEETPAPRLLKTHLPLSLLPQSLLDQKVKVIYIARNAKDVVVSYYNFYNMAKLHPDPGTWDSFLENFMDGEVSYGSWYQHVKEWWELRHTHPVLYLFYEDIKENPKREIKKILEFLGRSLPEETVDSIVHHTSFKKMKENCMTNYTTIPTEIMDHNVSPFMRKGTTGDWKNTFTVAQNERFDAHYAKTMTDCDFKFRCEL
T1 sequence (P17988 whole entry): as above

SMILES | percent reduction in concentration compared to the control strain, SULT1A1 + CysDNCQ [1] [%] | percent reduction in concentration compared to the control strain, SULT1A1 [3] [%] | percent reduction in concentration compared to the control strain, SULT1E1 [2] [%] | toxicity to the cells (growth rates in exponential growth phase, FIG. 5) [4]
O=c1cc(-c2ccc(O)cc2)oc2cc(O)cc(O)c12 [Apigenin] | 99 | 41 | 98 | –
CC(=O)Nc1ccc(O)cc1 [4-acetamidophenol, reference compound] | 30 | 24 | 10 | –
O=C(O)c1ccc(O)cc1 [4-hydroxybenzoic acid] | 6 | 5 | 4 | –
O=C(O)/C=C/c1ccc(O)cc1 [pHCA, p-coumaric acid] | – | – | – | toxic to the cells
COc1cc(/C=C/C(=O)O)ccc1O [Ferulic acid] | 100 | 72 | 67 | –
O=c1c(O)c(-c2ccc(O)c(O)c2)oc2cc(O)cc(O)c12 [Quercetin] | 81 | 75 | 74 | –
O=C(O)CCc1ccc(O)cc1 [3-(4-Hydroxyphenyl) propionic acid] | 7 | 3 | 1 | –
O=C(O)C(=O)Cc1ccc(O)cc1 [4-Hydroxyphenyl pyruvic acid] | 64 | 47 | 100 | –

Continued, in another order:

percent reduction in concentration compared to the control strain, SULT1A1 + CysDNCQ [1] [%] | percent reduction in concentration compared to the control strain, SULT1A1 [3] [%] | SMILES | percent reduction in concentration compared to the control strain, SULT1E1 [2] [%] | toxicity to the cells (growth rates in exponential growth phase, FIG. 5) [4]
39 | 33 | COc1cc(C(=O)O)ccc1O [Vanillic acid] | 0 | –
37 | 27 | O=c1cc(-c2ccc(O)c(O)c2)oc2cc(O)cc(O)c12 [Luteolin] | 0 | –
100 | 98 | O=c1c(O)c(-c2ccc(O)c(O)c2)oc2cc(O)ccc12 [fisetin] | 98 | –
